pIC50: −log10 of the molar value. Read-outs that look alike come from different tables or passages of the source.
Tested on: NCI-H1975 (EGFR-L858R-T790M) cells
Test: Inhibitory activity on proliferation of NCI-H1975 (EGFR-L858R-T790M) cells (CTG, 72 h)
Type: cell-based
Conditions: Homo sapiens
Method in brief: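 IC50 values come from S-shaped dose-survival fits of CTG signal expressed as % of vehicle. Compound exposure lasted 72 h at 37 °C with 0.1% DMSO; seeding was 3000 A431 cells/well in DMEM+10% FBS and 1000 NCI-H1975 cells/well in RPMI1640+10% FBS.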

[1] = read-out: IC50 (value in brackets)

SMILES | pIC50 (read-out: IC50 (class symbol)) | pIC50 [1]
COc1cc(N2CCN(c3ccc4c(c3)C(=O)N(C3CCC(=O)NC3=O)C4=O)CC2)c(-c2cnn(C)c2)cc1Nc1ncc(Br)c(Nc2ccccc2P(C)(C)=O)n1 (centres unmarked) [Compound 169, 5-(4-(4-((5-bromo-4-((2-(dimethylphosphoryl)phenyl)amino)pyrimidin-2-yl)amino)-5-methoxy-2-(1-methyl-1H-pyrazol-4-yl)phenyl)piperazin-1-yl)-2-(2,6-dioxopiperidin-3-yl)isoindoline-1,3-dione] | 6.30 to 7.00 | 6.95
COc1cc(N2CCN(CC3CCN(c4ccc(C(=O)NC5CCC(=O)NC5=O)nc4)CC3)CC2)c(-c2cnn(C)c2)cc1Nc1ncc(Br)c(Nc2ccc(-c3ccccc3)cc2P(C)(C)=O)n1 (centres unmarked) [Compound 123, 5-(4-((4-(4-((5-bromo-4-((3-(dimethylphosphoryl)-[1,1′-biphenyl]-4-yl)amino)pyrimidin-2-yl)amino)-5-methoxy-2-(1-methyl-1H-pyrazol-4-yl)phenyl)piperazin-1-yl)methyl)piperidin-1-yl)-N-(2,6-dioxopiperidin-3-yl)picolinamide] | > 7.00 | 7.29
COc1cc(N2CCC(CN3CCN(c4ccc(C5CCC(=O)NC5=O)cc4)CC3)CC2)c(-c2cnn(C)c2)cc1Nc1ncc(Cl)c(Nc2ccccc2P(C)(C)=O)n1 (centres unmarked) [Compound 135, 3-(4-(4-((1-(4-((5-chloro-4-((2-(dimethylphosphoryl)phenyl)amino)pyrimidin-2-yl)amino)-5-methoxy-2-(1-methyl-1H-pyrazol-4-yl)phenyl)piperidin-4-yl)methyl)piperazin-1-yl)phenyl)piperidine-2,6-dione] | > 7.00 | 7.09
COc1cc(N2CCN(C[C@H]3CCN(c4ccc5c(c4)C(=O)N(C4CCC(=O)NC4=O)C5=O)C3)CC2)c(-c2cnn(C)c2)cc1Nc1ncc(Cl)c(Nc2ccccc2P(C)(C)=O)n1 (stereo partly drawn) [Compound 120, 5-((R)-3-((4-(4-((5-chloro-4-((2-(dimethylphosphoryl)phenyl)amino)pyrimidin-2-yl)amino)-5-methoxy-2-(1-methyl-1H-pyrazol-4-yl)phenyl)piperazin-1-yl)methyl)pyrrolidin-1-yl)-2-(2,6-dioxopiperidin-3-yl)isoindoline-1,3-dione] | > 7.00 | 7.60
COc1cc(N2CCN(C3CCN(CC4CCN(c5ccc6c(c5)C(=O)N(C5CCC(=O)NC5=O)C6=O)CC4)CC3)CC2)c(-c2cnn(C)c2)cc1Nc1ncc(Br)c(Nc2ccc3nccnc3c2P(C)(C)=O)n1 (centres unmarked) [Compound 31, 5-(4-((4-(4-(4-((5-bromo-4-((5-(dimethylphosphoryl)quinoxalin-6-yl)amino)pyrimidin-2-yl)amino)-5-methoxy-2-(1-methyl-1H-pyrazol-4-yl)phenyl)piperazin-1-yl)piperidin-1-yl)methyl)piperidin-1-yl)-2-(2,6-dioxopiperidin-3-yl)isoindoline-1,3-dione] | > 7.00 | 7.82
COc1cc(N2CCC3(CCN(CC4CCN(c5cc6c(cc5F)C(=O)N(C5CCC(=O)NC5=O)C6=O)CC4)CC3)CC2)c(-c2cnn(C)c2)cc1Nc1ncc(Cl)c(Nc2ccc3nccnc3c2P(C)(C)=O)n1 (centres unmarked) [Compound 27, 5-(4-((9-(4-((5-chloro-4-((5-(dimethylphosphoryl)quinoxalin-6-yl)amino)pyrimidin-2-yl)amino)-5-methoxy-2-(1-methyl-1H-pyrazol-4-yl)phenyl)-3,9-diazaspiro[5.5]undecan-3-yl)methyl)piperidin-1-yl)-2-(2,6-dioxopiperidin-3-yl)-6-fluoroisoindoline-1,3-dione] | > 7.00 | 7.70
COc1cc(N2CCN(CC3CCN(c4ccc5c(c4)C(=O)N(C4CCC(=O)NC4=O)C5=O)CC3)CC2)c(-c2cnn(C)c2)cc1Nc1ncc(Cl)c(Nc2ccccc2P(C)(C)=O)n1 (centres unmarked) [Compound 128, 5-(4-((4-(4-((5-chloro-4-((2-(dimethylphosphoryl)phenyl)amino)pyrimidin-2-yl)amino)-5-methoxy-2-(1-methyl-1H-pyrazol-4-yl)phenyl)piperazin-1-yl)methyl)piperidin-1-yl)-2-(2,6-dioxopiperidin-3-yl)isoindoline-1,3-dione] | > 7.00 | 7.60
